Laboratory results as given in US9884063B2, “Amido-substituted azole compounds” (Bayer Pharma Aktiengesellschaft, priority 2014, dated 2018).

Columns and labels:
TNKS1 = target: T1, TNKS1 (Homo sapiens, UniProt O95271); assay: Modified TNKS1 Assay 2 (auto-parsylation, [3H]-NAD+ SPA); format: biochemical; conditions: 6 nM TNKS1, 96 well
T1 sequence (O95271 1-1327): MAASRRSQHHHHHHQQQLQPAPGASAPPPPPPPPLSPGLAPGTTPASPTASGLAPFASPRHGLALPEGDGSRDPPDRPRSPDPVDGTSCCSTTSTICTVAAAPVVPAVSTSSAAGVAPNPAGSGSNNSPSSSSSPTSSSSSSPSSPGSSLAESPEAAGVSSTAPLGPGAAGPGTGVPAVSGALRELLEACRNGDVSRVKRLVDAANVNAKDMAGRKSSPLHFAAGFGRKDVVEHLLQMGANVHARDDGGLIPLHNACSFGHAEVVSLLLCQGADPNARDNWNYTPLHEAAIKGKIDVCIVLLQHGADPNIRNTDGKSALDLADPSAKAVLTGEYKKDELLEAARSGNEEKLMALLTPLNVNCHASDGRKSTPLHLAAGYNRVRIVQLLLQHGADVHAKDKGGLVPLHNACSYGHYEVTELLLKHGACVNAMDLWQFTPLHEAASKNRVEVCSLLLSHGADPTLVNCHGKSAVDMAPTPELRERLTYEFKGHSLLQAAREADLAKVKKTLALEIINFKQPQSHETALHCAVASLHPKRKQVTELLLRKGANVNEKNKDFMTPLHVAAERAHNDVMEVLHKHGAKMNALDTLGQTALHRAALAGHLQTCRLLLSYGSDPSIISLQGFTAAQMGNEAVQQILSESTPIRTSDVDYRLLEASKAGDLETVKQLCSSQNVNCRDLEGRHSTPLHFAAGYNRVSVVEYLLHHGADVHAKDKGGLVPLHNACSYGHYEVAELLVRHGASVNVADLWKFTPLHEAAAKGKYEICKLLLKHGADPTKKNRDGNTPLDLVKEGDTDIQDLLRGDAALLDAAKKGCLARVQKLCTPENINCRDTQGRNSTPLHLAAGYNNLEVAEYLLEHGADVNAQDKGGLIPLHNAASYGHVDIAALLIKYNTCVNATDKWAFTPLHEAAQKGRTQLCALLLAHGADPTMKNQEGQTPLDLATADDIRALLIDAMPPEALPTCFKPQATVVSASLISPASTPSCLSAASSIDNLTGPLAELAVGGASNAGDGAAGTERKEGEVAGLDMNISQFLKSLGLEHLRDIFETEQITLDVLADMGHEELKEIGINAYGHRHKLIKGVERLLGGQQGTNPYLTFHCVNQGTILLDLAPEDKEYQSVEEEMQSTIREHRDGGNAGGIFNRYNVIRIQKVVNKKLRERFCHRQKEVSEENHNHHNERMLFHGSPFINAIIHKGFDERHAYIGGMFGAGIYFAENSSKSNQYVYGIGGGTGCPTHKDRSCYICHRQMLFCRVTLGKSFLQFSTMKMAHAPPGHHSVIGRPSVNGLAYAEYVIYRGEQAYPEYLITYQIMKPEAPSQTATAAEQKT

[1] = tested on: HEK293 FOP control reporter cell line; assay: HEK293 FOP Assay (FOP control vector luciferase reporter); format: cell-based; conditions: Homo sapiens
Method in brief: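 Compound series 50 μM to 15 nM, 3.16-fold steps, were diluted in CAFTY buffer (pH 7.4, 2 mM Ca2+, 0.01% BSA) and tested alongside the TOP reporter line. Human Wnt-3a was added at 2500–5 ng/ml in two-fold steps. The control HEK293 line stably holds an FOP vector whose TCF elements are randomized and non-functional.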

[2] = HEK293 FOP control reporter cell line, 16 hours incubation, compound dilution series 50 μM to 15 nM
[3] = HEK293 FOP control reporter cells, 16 hours, luciferase, dilution series from 50 μM

| SMILES | IC50 (TNKS1) | IC50 [1, 2] | IC50 [1, 3] |
| --- | --- | --- | --- |
| O=C(Nc1ccc(NC(=O)c2[nH]cnc2C(=O)NCCC2CCCC2)cc1)c1cc(F)c(F)cc1Cl [Example 48, N^5-{4-[(2-chloro-4,5-difluorobenzoyl)amino]phenyl}-N^4-(2-cyclopentylethyl)-1H-imidazole-4,5-dicarboxamide] | > 10 µM | 17 µM |  |
| CNC(=O)c1nc[nH]c1C(=O)Nc1ccc(NC(=O)c2c(Cl)cccc2C(F)(F)F)cc1 [Example 36, N^5-(4-{[2-chloro-6-(trifluoromethyl)benzoyl]amino}phenyl)-N^4-methyl-1H-imidazole-4,5-dicarboxamide] | > 10 µM |  | ≥ 50 µM |
| CCc1ccccc1C(=O)Nc1ccc(NC(=O)c2[nH]cnc2C(=O)NC)cc1 [Example 39, N^5-{4-[(2-ethylbenzoyl)amino]phenyl}-N^4-methyl-1H-imidazole-4,5-dicarboxamide] | 2.7 µM | 5.5 µM | 5.5 µM |
| CCNC(=O)c1nc[nH]c1C(=O)Nc1ccc(NC(=O)c2cnccc2Cl)cc1 [Example 263, N^5-(4-{[(4-chloropyridin-3-yl)carbonyl]amino}phenyl)-N^4-ethyl-1H-imidazole-4,5-dicarboxamide] | 0.3 µM | 27.5 µM |  |
| CC(C)N(CCNC(=O)c1nc[nH]c1C(=O)Nc1ccc(NC(=O)c2ccc(F)cc2Cl)cc1)C(C)C [Example 389, N^5-{4-[(2-chloro-4-fluorobenzoyl)amino]phenyl}-N^4-{2-[di(propan-2-yl)amino]ethyl}-1H-imidazole-4,5-dicarboxamide] | 0.15 µM | 11 µM |  |
| CC1(C)CC(NC(=O)c2nc[nH]c2C(=O)Nc2ccc(NC(=O)c3ccc(F)cc3Cl)cc2)CCO1 (stereo not shown) [Example 391, N^5-{4-[(2-chloro-4-fluorobenzoyl)amino]phenyl}-N^4-(2,2-dimethyltetrahydro-2H-pyran-4-yl)-1H-imidazole-4,5-dicarboxamide] | 0.4 µM | 27 µM |  |
| CNC(=O)c1nc[nH]c1C(=O)Nc1ccc(NC(=O)c2cc(Br)ccc2Cl)cc1 [Example 313, N^5-{4-[(5-bromo-2-chlorobenzoyl)amino]phenyl}-N^4-methyl-1H-imidazole-4,5-dicarboxamide] | 0.42 µM | 25 µM |  |
| O=C(Nc1ccc(NC(=O)c2[nH]cnc2C(=O)NCCN2CCCCC2)cc1)c1ccc(F)cc1I [Example 62, N^5-{4-[(4-fluoro-2-iodobenzoyl)amino]phenyl}-N^4-[2-(piperidin-1-yl)ethyl]-1H-imidazole-4,5-dicarboxamide] | 0.84 µM | 24 µM |  |
| CNC(=O)c1nc[nH]c1C(=O)Nc1ccc(NC(=O)c2ccc(F)cc2Br)cc1 [Example 56, N^5-{4-[(2-bromo-4-fluorobenzoyl)amino]phenyl}-N^4-methyl-1H-imidazole-4,5-dicarboxamide] | 0.53 µM | 10 µM |  |
| O=C(Nc1ccc(NC(=O)c2[nH]cnc2C(=O)NCCN2CCCCC2)cc1)c1ccc(F)cc1Cl [Example 32, N^4-{4-[(2-chloro-4-fluorobenzoyl)amino]phenyl}-N^5-[2-(piperidin-1-yl)ethyl]-1H-imidazole-4,5-dicarboxamide] | 0.009 µM | 30 µM | 42 µM |
| CNC(=O)c1nc[nH]c1C(=O)Nc1ccc(NC(=O)c2ccccc2)cc1 [Example 21, N^5-[4-(benzoylamino)phenyl]-N^4-methyl-1H-imidazole-4,5-dicarboxamide] | > 10 µM | 35 µM | 35 µM |
| CNC(=O)c1nc[nH]c1C(=O)Nc1ccc(NC(=O)c2cc(Cl)ccc2Cl)cc1 [Example 309, N^5-{4-[(2,5-dichlorobenzoyl)amino]phenyl}-N^4-methyl-1H-imidazole-4,5-dicarboxamide] | 0.41 µM | 38 µM |  |

The remaining compounds from weak to strong by IC50 (TNKS1), led by results:

| IC50 (TNKS1) | SMILES | IC50 [1, 2] | IC50 [1, 3] |
| --- | --- | --- | --- |
| 0.09 µM | CCNC(=O)c1nc[nH]c1C(=O)Nc1ccc(NC(=O)c2cc(OC)ccc2Cl)cc1 [Example 264, N^5-{4-[(2-chloro-5-methoxybenzoyl)amino]phenyl}-N^4-ethyl-1H-imidazole-4,5-dicarboxamide] | 16 µM |  |
| 0.08 µM | CCN1CCC[C@@H]1CNC(=O)c1nc[nH]c1C(=O)Nc1ccc(NC(=O)c2ccc(F)cc2Cl)cc1 [Example 413, N^5-{4-[(2-chloro-4-fluorobenzoyl)amino]phenyl}-N^4-{[(2R)-1-ethylpyrrolidin-2-yl]methyl}-1H-imidazole-4,5-dicarboxamide] | 26 µM |  |
| 0.07 µM | CN1CCN(CC(C)(C)CNC(=O)c2nc[nH]c2C(=O)Nc2ccc(NC(=O)c3ccc(F)cc3Cl)cc2)CC1 [Example 415, N^5-{4-[(2-chloro-4-fluorobenzoyl)amino]phenyl}-N^4-[2,2-dimethyl-3-(4-methylpiperazin-1-yl)propyl]-1H-imidazole-4,5-dicarboxamide] | 7.8 µM |  |
| 0.04 µM | CN1CCCC(CNC(=O)c2[nH]cnc2C(=O)Nc2ccc(NC(=O)c3ccc(F)cc3Cl)cc2)C1 (stereo not shown) [Example 298, N^4-{4-[(2-chloro-4-fluorobenzoyl)amino]phenyl}-N^5-[(1-methylpiperidin-3-yl)methyl]-1H-imidazole-4,5-dicarboxamide] | 17 µM |  |
| 0.02 µM | O=C(Nc1ccc(NC(=O)c2nc[nH]c2C(=O)NCCN2CCC(F)(F)C2)cc1)c1ccc(F)cc1Cl [Example 279, N^4-{4-[(2-chloro-4-fluorobenzoyl)amino]phenyl}-N^5-[2-(3,3-difluoropyrrolidin-1-yl)ethyl]-1H-imidazole-4,5-dicarboxamide] | 12 µM |  |
| 0.02 µM | Cc1nc(C(=O)Nc2ccc(NC(=O)c3ccc(F)cc3Cl)cc2)c(C(=O)NCCN(C)C)[nH]1 [Example 66, N^4-{4-[(2-chloro-4-fluorobenzoyl)amino]phenyl}-N^5-[2-(dimethylamino)ethyl]-2-methyl-1H-imidazole-4,5-dicarboxamide] | 6.2 µM |  |
| 0.01 µM | CN(C)CCNC(=O)c1nc[nH]c1C(=O)Nc1ccc(NC(=O)c2ccc(F)cc2Cl)c(F)c1 [Example 73, N^5-{4-[(2-chloro-4-fluorobenzoyl)amino]-3-fluorophenyl}-N^4-[2-(dimethylamino)ethyl]-1H-imidazole-4,5-dicarboxamide] | 33 µM |  |
| 0.01 µM | CN(C)CCNC(=O)c1nc[nH]c1C(=O)Nc1ccc(NC(=O)c2ccc(F)cc2Cl)cc1 [Example 22, N^4-{4-[(2-chloro-4-fluorobenzoyl)amino]phenyl}-N^5-[2-(dimethylamino)ethyl]-1H-imidazole-4,5-dicarboxamide] |  | ≥ 50 µM |
| 0.008 µM | O=C(Nc1ccc(NC(=O)c2ocnc2C(=O)NCCN2CCCCC2)cc1)c1ccc(F)cc1Cl [Example 303, N^5-{4-[(2-chloro-4-fluorobenzoyl)amino]phenyl}-N^4-[2-(piperidin-1-yl)ethyl]-1,3-oxazole-4,5-dicarboxamide] | 8.1 µM |  |
| 0.005 µM | C[C@@H]1CCCN(CCNC(=O)c2[nH]cnc2C(=O)Nc2ccc(NC(=O)c3ccc(F)cc3Cl)cc2)C1 [Example 278, N^4-{4-[(2-chloro-4-fluorobenzoyl)amino]phenyl}-N^5-{2-[(3R)-3-methylpiperidin-1-yl]ethyl}-1H-imidazole-4,5-dicarboxamide] | 25 µM |  |
| 0.004 µM | Cc1nc(C(=O)Nc2ccc(NC(=O)c3ccc(F)cc3Cl)cc2)c(C(=O)NCCN2CCCCC2)[nH]1 [Example 67, N^4-{4-[(2-chloro-4-fluorobenzoyl)amino]phenyl}-2-methyl-N^5-[2-(piperidin-1-yl)ethyl]-1H-imidazole-4,5-dicarboxamide] | 13 µM |  |
